SMILES	melting point [°C]
COc1cc(C2=C(c3c(C)[nH]c4ccccc34)C(=O)NC2=O)cc(OC)c1OC [Example 5, 3-(2-Methylindole-3-yl)-4-(3,4,5-trimethoxyphenyl)-1H-pyrrole-2,5-dione]	266
COc1ccc(C2=C(c3c[nH]c4ccccc34)C(=O)NC2=O)cc1OC [Example 2, 3-(Indole-3-yl)-4-(3,4-dimethoxyphenyl)-1H-pyrrole-2,5-dione]	210
COc1ccc2[nH]cc(C3=C(c4cc(OC)c(OC)c(OC)c4)C(=O)NC3=O)c2c1 [Example 3, 3-(5-Methoxyindole-3-yl)-4-(3,4,5-trimethoxyphenyl)-1H-pyrrole-2,5-dione]	268
COc1cc(C2=C(c3cn(C)c4ccccc34)C(=O)NC2=O)cc(OC)c1OC [Example 4, 3-(1-Methylindole-3-yl)-4-(3,4,5-trimethoxyphenyl)-1H-pyrrole-2,5-dione]	187

Now from value to compound:

melting point [°C]	SMILES
162	COc1cc(C2=C(c3c[nH]c4ncccc34)C(=O)NC2=O)cc(OC)c1OC [Example 8, 3-(7-Azaindol-3-yl)-4-(3,4,5-trimethoxyphenyl)-1H-pyrrole-2,5-dione]
304	COc1cc(C2=C(c3c(-c4ccccc4)[nH]c4ccccc34)C(=O)NC2=O)cc(OC)c1OC [Example 6, 3-(2-Phenylindole-3-yl)-4-(3,4,5-trimethoxyphenyl)-1H-pyrrole-2,5-dione]
252	COc1cc(C2=C(c3cc4ccccc4[nH]3)C(=O)NC2=O)cc(OC)c1OC [Example 7, 3-(Indole-2-yl)-4-(3,4,5-trimethoxyphenyl)-1H-pyrrole-2,5-dione]

— US8008320B2, “3-(indolyl)-4-arylmaleimide derivatives and their use as angiogenesis inhibitors” (Johannes Gutenberg-Universitatis, priority 2004, dated 2011)
